Tests used:
[1] = system: Rattus norvegicus; experiment: Cholesterol lowering activity in rats after a dose of 4 mg/kg once a day for 2 days; format: functional
[2] = target: O-acyltransferase (Oryctolagus cuniculus, UniProt G1SFD9); experiment: Inhibition against acyl coenzyme A:cholesterol acyltransferase derived from rabbit intestine microsomes
[3] = target: T1, Acyl-CoA:cholesterol acyltransferase (Oryctolagus cuniculus, UniProt Q95214); experiment: Inhibition against acyl coenzyme A:cholesterol acyltransferase derived from rabbit aorta homogenate; format: tissue-based
T1 sequence (Q95214 whole entry): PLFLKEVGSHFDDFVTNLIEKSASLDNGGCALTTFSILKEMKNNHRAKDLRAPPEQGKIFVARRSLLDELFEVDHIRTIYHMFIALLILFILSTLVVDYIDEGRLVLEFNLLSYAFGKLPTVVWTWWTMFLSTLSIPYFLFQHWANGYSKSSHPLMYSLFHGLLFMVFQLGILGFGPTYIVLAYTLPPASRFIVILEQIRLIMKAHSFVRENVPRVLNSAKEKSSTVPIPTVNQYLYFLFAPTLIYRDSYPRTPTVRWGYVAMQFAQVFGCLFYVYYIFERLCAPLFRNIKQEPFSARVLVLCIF

[4] = system: Rattus norvegicus; experiment: Cholesterol lowering activity in rats after a dose of 1 mg/kg once a day for 2 days; format: functional

Chain of O-acyltransferase (G1SFD9 1-524): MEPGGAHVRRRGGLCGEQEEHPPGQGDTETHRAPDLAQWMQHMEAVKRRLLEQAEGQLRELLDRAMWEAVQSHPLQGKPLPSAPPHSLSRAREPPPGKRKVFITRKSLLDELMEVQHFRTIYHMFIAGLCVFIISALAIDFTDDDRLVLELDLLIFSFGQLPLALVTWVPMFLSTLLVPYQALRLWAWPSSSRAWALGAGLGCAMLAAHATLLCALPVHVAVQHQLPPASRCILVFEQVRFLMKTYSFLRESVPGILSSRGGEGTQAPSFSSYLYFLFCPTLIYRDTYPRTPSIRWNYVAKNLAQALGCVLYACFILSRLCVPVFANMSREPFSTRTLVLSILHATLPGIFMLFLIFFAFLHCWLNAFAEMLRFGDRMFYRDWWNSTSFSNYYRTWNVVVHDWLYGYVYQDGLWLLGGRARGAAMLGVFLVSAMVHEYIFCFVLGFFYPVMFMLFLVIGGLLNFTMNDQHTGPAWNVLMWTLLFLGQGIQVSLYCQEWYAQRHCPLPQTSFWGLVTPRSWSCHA

SMILES | IC50 [2] | IC50 [3] | Cholesterol reduction [1] | Cholesterol reduction [4]
Cc1cccc(OCCCn2cnc(-c3ccccc3)c2C)c1NC(=O)NC1CCCCC1 | 100 nM | 180 nM | -53% | -42%
Cc1cccc(OCCCn2cnc(-c3ccccc3)c2)c1NC(=O)NCCC(C)C | 230 nM | 370 nM | – | -41%
Cc1cccc(OCCCn2cnc(-c3ccccc3)c2Cl)c1NC(=O)NCCC(C)C | 140 nM | 88 nM | – | -59%
CCCCCNC(=O)Nc1c(NS(C)(=O)=O)cccc1OCCCn1cnc(-c2ccccc2)c1C | 140 nM | 480 nM | 3.6% | –
CCCCCNC(=O)Nc1c(C)cccc1OCCCn1cnc(-c2ccccc2)c1CS(C)(=O)=O | 410 nM | > 1000 nM | – | –
CCCCCNC(=O)Nc1c(C)cccc1OCCCn1cnc(-c2ccc(Cl)cc2)c1 | 120 nM | 260 nM | -59% | -43%
CCc1c(-c2ccccc2)ncn1CCCOc1cccc(C)c1NC(=O)NCC(C)(C)C | 460 nM | 68 nM | – | -55%
CCCCCNC(=O)Nc1c(C)cccc1OCCCn1cnc(-c2ccccc2NS(C)(=O)=O)c1 | 450 nM | 240 nM | -39% | –
CCCCCNC(=O)Nc1ccccc1OCCCn1cnc(-c2ccccc2)c1C | 230 nM | 390 nM | 3.9% | –
CCCCCNC(=O)Nc1c(OCCCn2cnc(-c3ccccc3)c2C)cccc1S(C)(=O)=O | 140 nM | 50 nM | -33% | –
CCCCCNC(=O)Nc1c(NS(=O)(=O)C(F)(F)F)cccc1OCCCn1cnc(-c2ccccc2)c1C | > 1000 nM | > 10000 nM | – | –
Cc1cccc(OCCCn2cnc(-c3ccccc3)c2C(C)C)c1NC(=O)NCCC(C)C | 280 nM | 19 nM | – | -40%
CCCCCNC(=O)Nc1c(C)cccc1OCCCn1cnc(-c2cccc(NS(C)(=O)=O)c2)c1 | > 1000 nM | > 1000 nM | – | –
CCCCCNC(=O)Nc1c(C)cccc1OCCCn1cnc(-c2ccccc2C)c1 | 260 nM | 100 nM | -48% | -25%
Cc1cccc(OCCCn2cnc(-c3ccccc3)c2CO)c1NC(=O)NCCC(C)C | 230 nM | 190 nM | – | -52%
CCCCNC(=O)Nc1c(C)cccc1OCCCn1cnc(-c2ccccc2)c1 | – | 310 nM | – | -7%

SMILES | IC50 [2] | IC50 [3] | Cholesterol reduction [1] | Cholesterol reduction [4]
CCCCCNC(=O)Nc1c(C)cccc1OCCCn1cnc(-c2ccc([N+](=O)[O-])cc2)c1 | 70 nM | 560 nM | -33% | -31%
CCCCCNC(=O)Nc1c(C)cccc1OCCCn1cnc(-c2cccc([N+](=O)[O-])c2)c1 | 130 nM | 290 nM | – | -15%
CCc1c(-c2ccccc2)ncn1CCCOc1cccc(C)c1NC(=O)NCCC(C)C | 220 nM | 72 nM | – | -46%
Cc1cccc(OCCCn2cnc(-c3ccccc3)c2)c1NC(=O)NCC(C)(C)C | 320 nM | 73 nM | – | -46%
CCCCCNC(=O)Nc1c(C)cccc1OCCCn1cnc(-c2cc(OC)c(OC)c(OC)c2)c1 | 510 nM | 900 nM | – | –
Cc1cccc(OCCCn2cnc(-c3ccccc3)c2C)c1NC(=O)NCC(C)(C)C | 210 nM | 140 nM | – | -64%
Cc1cccc(OCCCn2cnc(-c3ccccc3)c2Cl)c1NC(=O)NCC(C)(C)C | 200 nM | 48 nM | – | -43%
CCCCCNC(=O)Nc1c(C)cccc1OCCCn1cnc(-c2ccc(NS(C)(=O)=O)cc2)c1 | > 1000 nM | > 1000 nM | – | –
CCCCCNC(=O)Nc1c(C)cccc1OCCCn1cnc(-c2ccccc2[N+](=O)[O-])c1 | 210 nM | 170 nM | -66% | -46%
CCCCCNC(=O)Nc1c(C)cccc1OCCCn1cnc(-c2c(OC)cc(OC)cc2OC)c1 | > 1000 nM | > 1000 nM | – | –
CCCCCNC(=O)Nc1c(OCCCn2cnc(-c3ccccc3)c2C)cccc1[N+](=O)[O-] | 44 nM | 60 nM | -52% | –
CCCCCNC(=O)Nc1c(CN(C)C)cccc1OCCCn1cnc(-c2ccccc2)c1C | 1300 nM | 2600 nM | – | –
CCCCCNC(=O)Nc1c(C)cccc1OCCCn1cnc(-c2ccc(F)cc2F)c1 | 290 nM | 120 nM | -48% | -23%
CCCCCNC(=O)Nc1c(C)cccc1OCCCn1cnc(-c2ccccc2S(C)(=O)=O)c1 | 160 nM | 410 nM | -19% | –
CCCCCNC(=O)Nc1c(C)cccc1OCCCn1cnc2c1CCc1ccccc1-2 | 220 nM | 220 nM | -56% | -30%

Continued, in another order:

IC50 [2] | IC50 [3] | SMILES | Cholesterol reduction [1] | Cholesterol reduction [4]
210 nM | 200 nM | CCCCCNC(=O)Nc1c(C)cccc1OCCCn1cnc(-c2ccccc2)c1CO | -55% | -29%
90 nM | 220 nM | CCCCCNC(=O)Nc1c(OC)cccc1OCCCn1cnc(-c2ccccc2)c1C | -34% | –
– | 84 nM | CCCCCNC(=O)Nc1c(C)cccc1OCCCn1cnc(-c2ccccc2)c1Cl | – | -41%
190 nM | 590 nM | CCCCNC(=O)Nc1c(C)cccc1OCCCn1cnc(-c2ccccc2)c1CO | – | -21%
150 nM | 600 nM | CCCCCNC(=O)Nc1c(NC)cccc1OCCCn1cnc(-c2ccccc2)c1C | -35% | –
80 nM | 44 nM | CCCCCNC(=O)Nc1c(CC)cccc1OCCCn1cnc(-c2ccccc2)c1C | -60% | -51%
73 nM | 100 nM | CCCCCNC(=O)Nc1c(Cl)cccc1OCCCn1cnc(-c2ccccc2)c1C | -49% | –
570 nM | 70 nM | CCCCCNC(=O)Nc1c(C)cccc1CSCCn1cnc(-c2ccccc2)c1C | -11% | –
> 1000 nM | > 1000 nM | CCCCCNC(=O)Nc1c(C)cccc1[S+]([O-])CCCn1cnc(-c2ccccc2)c1C (stereo not drawn) | – | –
230 nM | 19 nM | CCCCCNC(=O)Nc1c(OCCCn2cnc(-c3ccccc3)c2C)cccc1SC | – | –
> 1000 nM | 90 nM | CCCCCNC(=O)Nc1c(C)cccc1CS(=O)(=O)CCn1cnc(-c2ccccc2)c1C | – | –
73 nM | 480 nM | CCCCNC(=O)Nc1c(C)cccc1OCCCn1cnc(-c2ccccc2)c1C | -45% | -34%
55 nM | 210 nM | CCCCNC(=O)Nc1c(C)cccc1OCCCn1cnc(-c2ccccc2)c1Cl | – | -40%
460 nM | 960 nM | CCCCCNC(=O)Nc1c(O)cccc1OCCCn1cnc(-c2ccccc2)c1C | – | –
170 nM | 98 nM | CCCCCNC(=O)Nc1c(CCC)cccc1OCCCn1cnc(-c2ccccc2)c1C | -50% | -34%
> 1000 nM | > 1000 nM | CCCCCNC(=O)Nc1c(C)cccc1OCCCn1cnc(-c2ccccc2)c1C(=O)O | – | –
150 nM | 55 nM | CCCCCNC(=O)Nc1c(C)cccc1OCCCn1cnc(-c2ccccc2)c1C(=O)OCC | – | –
670 nM | 310 nM | CCCCCNC(=O)Nc1c(C)cccc1OCCCn1cnc(-c2ccccc2)c1CN(C)C | -10% | –
160 nM | 170 nM | CCCCCNC(=O)Nc1c(C)cccc1OCC(O)Cn1cnc(-c2ccccc2)c1C (stereo not drawn) | -43% | –
97 nM | 280 nM | CCCCCNC(=O)Nc1c(C)cccc1C(=O)NCCn1cnc(-c2ccccc2)c1C | -25% | –
69 nM | 71 nM | CCCCCNC(=O)Nc1c(F)cccc1OCCCn1cnc(-c2ccccc2)c1C | -30% | –
71 nM | 45 nM | CCCCCNC(=O)Nc1c(OCCCn2cnc(-c3ccccc3)c2C)cccc1C(C)C | -59% | -40%
84 nM | 68 nM | CCCCCCNC(=O)Nc1c(C)cccc1OCCCn1cnc(-c2ccccc2)c1C | -46% | -43%
> 1000 nM | 1900 nM | CCCCCNC(=O)Nc1c(C#N)cccc1OCCCn1cnc(-c2ccccc2)c1C | – | –
600 nM | 730 nM | CCCCCNC(=O)Nc1c(C)cccc1S(=O)(=O)CCCn1cnc(-c2ccccc2)c1C | – | –
880 nM | 100 nM | CCCCCNC(=O)Nc1c(C)cccc1COCCn1cnc(-c2ccccc2)c1C | 2% | –
100 nM | 590 nM | CCCCCNC(=O)Nc1c(N)cccc1OCCCn1cnc(-c2ccccc2)c1C | -21% | –
180 nM | > 1000 nM | CCCCCNC(=O)Nc1c(C)cccc1OCCCn1cnc(-c2ccccc2)c1C(N)=O | – | -20%
77 nM | 86 nM | CCCCCNC(=O)Nc1c(C)cccc1SCCCn1cnc(-c2ccccc2)c1C | -7% | –
> 1000 nM | 440 nM | CCCCCNC(=O)Nc1c(C)cccc1C[S+]([O-])CCn1cnc(-c2ccccc2)c1C (stereo not drawn) | – | –

Source: ChEMBL document CHEMBL1127021, “Structure-activity relationship of a series of phenylureas linked to 4-phenylimidazole. Novel potent inhibitors of acyl-CoA:cholesterol O-acyltransferase with antiatherosclerotic activity. 2” (J Med Chem, 1993)
